Values after ≈ are worked out from the molar mass of the structure shown. Where two headings read alike, the source gives them in different places.
Columns and labels:
CrtN = CrtN (Staphylococcus aureus, UniProt O07855); experiment: biochemical
Description: (1) Preparation of Diapophytoene Emulsion as Substrate […]
After completion of the reaction, the reaction was terminated by adding 500 μL of methanol, and the reaction solution was transferred to a 15 mL centrifuge tube; the reaction solution was added with 700 μL of chloroform, and vortexed thoroughly to extract the reacted staphyloxanthin, and then centrifuged at 7000 rpm for 3 min, and the chloroform layer was carefully pipetted; the remaining reaction solution was extracted by further adding 500 μL of chloroform thereto, and the extracts were combined and concentrated to dryness under vacuum; the concentrated product was dissolved by adding 200 μL of chloroform, and pipetted into a 96-well microplate, and then the absorbance was measured at 450 nm for quantification of the CrtN product diaponeurosporene.

Microsporum gypseum = experiment: In vitro antifungal assay (micro liquid-based dilution); assay type: cell-based; settings: Nannizzia gypsea, read-out: Antifungal Activities, MIC80
CYP enzyme subtype 2C8 = CYP enzyme subtype 2C8 (Homo sapiens, UniProt P10632); experiment: Inhibition assay on hepatic CYP450 enzyme
in vitro = settings: mouse, microsomes
USA400 MW2 = experiment: IC50 of inhibition of staphyloxanthin synthesis in drug-resistant strain; assay type: cell-based; settings: Staphylococcus aureus
Description: (§1) Selection of compound concentrations: based on the preliminary screening results, the ability of each compound to inhibit staphyloxanthin synthesis was determined. […] According to the assay results, 10 different concentration gradients were designed for each compound, such that the ability to inhibit staphyloxanthin synthesis comprised substantially from 0% to 100%.
(§2) Culture of the strains: single colonies of strain Newman and crtN mutant strain were picked from TSA plates, added into test tubes containing 4 mL of sterile TSB medium, and cultured at 37° C. and 250 rpm for 12 h for later use.
(§3) The relative level of staphyloxanthin synthesis at each concentration of the compound of the invention=A450 (sample)/A450 (negative control)*100%. With the molar concentration of the compound as the abscissa and the relative level of staphyloxanthin synthesis as the ordinate, a curve fitting of inhibitor concentration-inhibition rate (log(inhibitor) vs response) was performed in Graphpad prism 5.0 software, and the IC50 of the compound for inhibiting staphyloxanthin synthesis was calculated by software based on the fitting results.
(§4) In addition to replacement of S. aureus strain Newman with USA 400 MW 2, USA 300 LAC and Mu 50, the rest of the method is the same as in Examples 58-59.
(§5) Compound IA-25 was used as a representative compound. In addition to replacement of S aureus strain Newman with other MRSA strains as described in Table 3, the rest of the method is the same as in Examples 61-62.

USA300 LAC = experiment: as above; assay type: cell-based; settings: Staphylococcus aureus
Description: as §1, §2, §3, §4, §5

Mu50 = experiment: as above; assay type: cell-based; settings: Staphylococcus aureus
Description: as §1, §2, §3, §4, §5

NRS100 (USA) = experiment: IC50 of inhibition of staphyloxanthin synthesis in MRSA strain; assay type: cell-based; settings: Staphylococcus aureus, NRS100, read-out: Inhibitory activity on staphyloxanthin IC50
Description: as §1, §2, §3, §5

XN108 (CHN) = experiment: as above; assay type: cell-based; settings: Staphylococcus aureus, read-out: Inhibitory activity on staphyloxanthin IC50
Description: as §1, §2, §3, §5

HS663 (CHN) = experiment: as above; assay type: cell-based; settings: Staphylococcus aureus, read-out: Inhibitory activity on staphyloxanthin IC50
Description: as §1, §2, §3, §5

NRS108 (FRA) = experiment: as above; assay type: cell-based; settings: Staphylococcus aureus, NRS108, read-out: Inhibitory activity on staphyloxanthin IC50
Description: as §1, §2, §3, §5

LRSA56 (CHN) = experiment: as above; assay type: cell-based; settings: Staphylococcus aureus, read-out: Inhibitory activity on staphyloxanthin IC50
Description: as §1, §2, §3, §5

NRS70 (JPN) = experiment: as above; assay type: cell-based; settings: Staphylococcus aureus, NRS70, read-out: Inhibitory activity on staphyloxanthin IC50
Description: as §1, §2, §3, §5

LRSA205 (CHN) = experiment: as above; assay type: cell-based; settings: Staphylococcus aureus, read-out: Inhibitory activity on staphyloxanthin IC50
Description: as §1, §2, §3, §5

NF65Y (CHN) = experiment: as above; assay type: cell-based; settings: Staphylococcus aureus, read-out: Inhibitory activity on staphyloxanthin IC50
Description: as §1, §2, §3, §5

NRS271 (SPA) = experiment: as above; assay type: cell-based; settings: Staphylococcus aureus, NRS271, read-out: Inhibitory activity on staphyloxanthin IC50
Description: as §1, §2, §3, §5

LRSA202 (CHN) = experiment: as above; assay type: cell-based; settings: Staphylococcus aureus, read-out: Inhibitory activity on staphyloxanthin IC50
Description: as §1, §2, §3, §5

Trichophyton rubrum = experiment: In vitro antifungal assay (micro liquid-based dilution); assay type: cell-based; settings: read-out: Antifungal Activities, MIC80

Sequence of CYP enzyme subtype 2C8 (P10632 whole entry): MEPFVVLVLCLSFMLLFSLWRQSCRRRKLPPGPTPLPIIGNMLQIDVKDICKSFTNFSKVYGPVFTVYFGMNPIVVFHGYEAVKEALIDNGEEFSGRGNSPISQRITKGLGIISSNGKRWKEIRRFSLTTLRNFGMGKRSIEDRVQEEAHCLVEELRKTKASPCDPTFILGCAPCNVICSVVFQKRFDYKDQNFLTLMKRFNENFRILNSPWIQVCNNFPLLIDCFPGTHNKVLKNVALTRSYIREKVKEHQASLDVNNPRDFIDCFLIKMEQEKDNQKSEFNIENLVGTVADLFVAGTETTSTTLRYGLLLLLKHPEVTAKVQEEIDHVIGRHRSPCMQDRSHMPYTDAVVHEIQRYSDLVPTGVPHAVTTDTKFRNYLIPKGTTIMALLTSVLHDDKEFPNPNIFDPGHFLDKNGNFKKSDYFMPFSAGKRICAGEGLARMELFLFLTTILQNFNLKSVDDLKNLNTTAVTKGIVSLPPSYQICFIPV
Sequence of CrtN (O07855 whole entry): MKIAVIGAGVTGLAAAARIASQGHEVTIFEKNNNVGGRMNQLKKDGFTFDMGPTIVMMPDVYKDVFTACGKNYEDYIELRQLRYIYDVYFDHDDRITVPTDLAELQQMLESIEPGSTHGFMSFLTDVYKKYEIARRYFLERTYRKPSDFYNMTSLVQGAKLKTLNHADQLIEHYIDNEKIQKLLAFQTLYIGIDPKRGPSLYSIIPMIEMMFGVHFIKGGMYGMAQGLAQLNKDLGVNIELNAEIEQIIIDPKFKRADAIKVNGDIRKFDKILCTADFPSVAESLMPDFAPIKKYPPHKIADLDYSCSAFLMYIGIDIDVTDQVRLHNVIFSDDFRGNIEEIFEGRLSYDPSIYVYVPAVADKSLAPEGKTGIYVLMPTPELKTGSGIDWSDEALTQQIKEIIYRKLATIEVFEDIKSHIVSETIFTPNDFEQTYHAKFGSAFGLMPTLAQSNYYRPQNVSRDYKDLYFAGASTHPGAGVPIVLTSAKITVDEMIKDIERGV

In the case of `CN(C/C=C/c1ccc(-c2ccccc2)cc1)Cc1coc2ccccc12` [Compound IA-25, (E)-N-methyl-N-[(benzofuran-3-yl)methylene]-3-(4-phenylphenyl)-prop-2-en-1-amine], the IC50 (CrtN) is reported as 373 nM, the MIC80 (Microsporum gypseum) is reported as 32 mg/L (≈ 90.5 µM) and the IC50 (CYP enzyme subtype 2C8) is reported as over 10000 nM. For the same molecule, the half-life (in vitro) was 0.833 to 2 h, the IC50 (USA400 MW2; USA400, read-out: IC50, staphyloxanthin synthesis in drug-resistant strain) was 1.9 ± 0.5 nM and the IC50 (USA400 MW2; USA400, read-out: Inhibitory activity on staphyloxanthin IC50) was 1.9 ± 1.2 nM. It also gave an IC50 (USA300 LAC; USA300, read-out: IC50, staphyloxanthin synthesis in drug-resistant strain) of 7.9 ± 1.2 nM, an IC50 (USA300 LAC; USA300, read-out: Inhibitory activity on staphyloxanthin IC50) of 7.9 ± 0.2 nM and an IC50 (Mu50; read-out: IC50, staphyloxanthin synthesis in drug-resistant strain) of 0.8 ± 1.4 nM. The IC50 (Mu50; read-out: Inhibitory activity on staphyloxanthin IC50) was 0.8 ± 0.01 nM, the IC50 (NRS100 (USA)) was 1.2 ± 0.1 nM and the IC50 (XN108 (CHN)) was 0.2 ± 0.04 nM. For the same molecule, the IC50 (HS663 (CHN)) was 0.02 ± 0.01 nM, the IC50 (NRS108 (FRA)) was 5.6 ± 0.02 nM and the IC50 (LRSA56 (CHN)) was 1.8 ± 0.1 nM. It also gave an IC50 (NRS70 (JPN)) of 1.7 ± 0.01 nM, an IC50 (LRSA205 (CHN)) of 10.5 ± 0.4 nM and an IC50 (NF65Y (CHN)) of 1 ± 0.02 nM. For the same molecule, the IC50 (NRS271 (SPA)) was 0.4 ± 0.01 nM, the IC50 (LRSA202 (CHN)) was 1.6 ± 0.2 nM and the MIC80 (Trichophyton rubrum) was 64 mg/L (≈ 181 µM). It also gave a bioavailability (in vivo) of 15 to 45%.

Reference: US10829464B2, “Benzoheterocyclic alkylamine compounds and use thereof” (priority 2016, dated 2020)
